{
  "source": "patent US20140314791A1",
  "about": "“METHODS OF TREATING CANCER” (DANA-FARBER CANCER INSTITUTE, INC., priority 2012, published 2014)",
  "key": {"[1]": {"test_system": "Lkb1-null (t2, t4, and t5) cells", "assay": "Cell proliferation assay with CHEK1 inhibitors (CCK-8), Lkb1-null", "format": "cell-based, mouse"}, "[2]": {"test_system": "Lkb1-wt (634, 855, and 857) cells", "assay": "Cell proliferation assay with CHEK1 inhibitors (CCK-8), Lkb1-wt", "format": "cell-based, mouse", "details": "Lkb1-wt cells, mean, 3 days; read-out: 50% growth inhibition (GI50) concentration"}, "γH2AX": {"test_system": "γH2AX", "assay": "Western blot analysis of γH2AX after CHEK1 inhibitor treatment", "format": "cell-based", "details": "3 h at the GI50 concentration"}, "Lkb1-null cells": {"test_system": "Lkb1-null cells", "assay": "In vitro study of combination treatments with AZD7762", "format": "cell-based, mouse", "details": "data not shown"}, "[3]": {"test_system": "Lkb1-null t2, t4, and t5 cells", "assay": "dTTP rescue of shDtymk growth phenotype", "format": "cell-based, mouse", "details": "150 μM dTTP", "description": "(B) Morphology of Lkb1-null t2, t4, and t5 cells transduced with shGFP or shDtymk-1 and then cultured with or without additional 150 μM dTTP in medium for 3 days.\n(§1) Next it was determined whether adding dTTP to the media could rescue cell death after Dtymk knockdown. Three Lkb1-null cell lines were transduced with shGFP or shDtymk-1 and then selectively cultured in puromycin medium in the presence or absence of 150 μM dTTP for 3 days (Taricani et al., 2010). […] Expression of DTYMK in the shDtymk-1 cells was not determined because the remaining cells were too few for RNA and protein extraction (FIG. 4B)."}, "[4]": {"test_system": "Lkb1-wt and Lkb1-null cells", "assay": "3H-dTTP incorporation into genomic DNA", "format": "cell-based, mouse", "details": "0.25 μCi 3H-dTTP, 6 h", "description": "Lkb1-wt and Lkb1-null cells were plated into 96 well plates with 4000 cells/well in 100 μL medium for overnight culturing then incubated with 0.25 μCi ^3H-dTTP (Perkin Elmer, NET221H250UC) for 6 h and used 0.25 μCi ^3H-deoxythymidine (Perkin Elmer, NET221H250UC) as positive and 0.25 μCi^3H-dTTP/non-cells (medium alone) as negative controls. Cells were washed with PBS, trypsinized, and DNA was captured with a cell harvester on glass fiber filters Filtermat A (Perkin Elmer, #1450-421), which was then placed into a liquid scintillation counting container for counting on a scintillation beta-counter. The data represent mean±SD for 6 replicates.\nas §1"}},
  "data": [
    {"smiles": "O=c1[nH]c2ccc(Cl)cc2c(N[C@@H]2CN3CCC2CC3)c1-c1nc2ccccc2[nH]1", "note": "[CHIR124]", "values": [
      {"measurement": "inhibition of Lkb1-null cells stronger than Lkb1-wt cells", "setting": "[1]; GI50 Lkb1-wt versus Lkb1-null", "value": 3, "unit": "fold"},
      {"measurement": "GI50", "setting": "[1]; Lkb1-null cells, mean, 3 days, read-out: 50% growth inhibition (GI50) concentration", "value": 19, "unit": "nM"},
      {"measurement": "GI50", "setting": "[2]", "value": 56, "unit": "nM"},
      {"measurement": "phosphorylation of H2AX (Western blot)", "setting": "γH2AX", "value": "induced phosphorylation of H2AX"}
    ]},
    {"smiles": "Nc1ccn([C@@H]2O[C@H](CO)[C@@H](O)C2(F)F)c(=O)n1", "note": "[Gemcitabine]", "values": [
      {"measurement": "synergy with AZD7762 in the treatment of Lkb1-null cells", "setting": "Lkb1-null cells", "value": "moderately synergistic"}
    ]},
    {"smiles": "Cc1cn([C@H]2C[C@H](O)[C@@H](COP(=O)(O)OP(=O)(O)OP(=O)(O)O)O2)c(=O)[nH]c1=O", "note": "[dTTP]", "values": [
      {"measurement": "toxicity of dTTP to shGFP-transduced cells", "setting": "[3]", "value": "not to be toxic"},
      {"measurement": "growth of shDtymk-transduced Lkb1-null cells with exogenous dTTP", "setting": "[3]; 3 days", "value": "grew as well as shGFP-transduced cells"},
      {"measurement": "passage of radiolabeled dTTP through the cell membrane (incorporation into genomic DNA)", "setting": "[4]", "value": "passed through the cell membrane"}
    ]}
  ]
}
